Literature values in patent US11096902B1, “Transdermal film formulations and methods of use” (King Abdulaziz University, priority 2021, dated 2021).

Conditions: oral, with food

For `CC(C)c1c(C(=O)Nc2ccccc2)c(-c2ccccc2)c(-c2ccc(F)cc2)n1CC[C@@H](O)C[C@@H](O)CC(=O)[O-].CC(C)c1c(C(=O)Nc2ccccc2)c(-c2ccccc2)c(-c2ccc(F)cc2)n1CC[C@@H](O)C[C@@H](O)CC(=O)[O-].[Ca+2]` [ATC, Atorvastatin calcium], the “reduction of systemic availability by concomitant intake of food” value is given as 25%.
